Measured values as given in patent US9808003B2, “Herbicidally active 2-(substituted-phenyl)-cyclopentane-1,3-dione compounds and derivatives thereof” (Syngenta Limited, priority 2013, dated 2017).

What was measured:
Format in all cases: in vivo
Conditions in all cases: 14 DAA
[1] = test system: Alopecurus myosuroides (ALOMY); experiment: Test 1B glasshouse assay, post-emergence herbicidal activity against grassy weeds
Protocol: (§1) Biological Example 1B tests the herbicidal activity of“technical” compounds (i.e. compounds not previously formulated before the test), as the herbicides under test.
(§2) An “instant formulation”, known as the “IF50”, containing 50 g/liter (i.e. 5% w/v) of the “technical” (i.e. unformulated) active ingredient (i.e. the herbicide under test), is prepared by dissolving the active ingredient in a mixture of organic solvents and emulsifier, details of which are provided in the Table below.
(§3) This IF50 is mixed with a small, variable amount of acetone to aid dissolution, before addition of a 0.5% v/v aqueous solution of the adjuvant Adigor™ (an adjuvant containing rapeseed oil methyl ester, ethoxylated alcohols, and a mixture of heavy aromatic hydrocarbons, e.g. available from Syngenta), as the aqueous diluent, to form an aqueous spray solution which contains a predetermined concentration of the active ingredient (which varies depending on the application rate of the active ingredient to the plants) and 0.5% v/v of the adjuvant Adigor™. This aqueous spray solution is suitable for spraying onto plants.
(§4) Seeds of a variety of test species are sown in standard soil in pots. After cultivation for 14 days under controlled conditions in a glasshouse (at 22/16° C., day/night; 16 hours light; 65% humidity), the plants are sprayed post-emergence with the above-mentioned aqueous spray solution containing inter alia the “technical” active ingredient (i.e. the herbicide under test) and the adjuvant Adigor™.
(§5) The test plants are then grown on under controlled conditions in the glasshouse (at 22/16° C., day/night; 16 hours light; 65% humidity) and are watered twice daily. 14 days after application of the test herbicide, the test is evaluated visually for percentage phytotoxicity to the plant (where 100%=total damage to plant; 0%=no damage to plant).
(§6) More specifically, post-emergence herbicidal activity (phytotoxicity) data, on certain tested grassy monocotyledonous weeds (and/or plants of the type Gramineae) and cereal crops in the glasshouse, are measured 14 days after application of the herbicide (14 DAA), typically for inter alia one or more of the following application rates: • (a) a post-emergence application rate of 60 g/ha of the test herbicide with or without 50 g/ha of cloquintocet-mexyl safener, and • (b) a post-emergence application rate of 90 g/ha of the test herbicide with 50 g/ha of cloquintocet-mexyl safener, and • (c) a post-emergence application rate of 120 g/ha of the test herbicide with 50 g/ha of cloquintocet-mexyl safener.
(§7) The cloquintocet-mexyl, when used, is present in the formulation containing the herbicide under test dissolved in acetone plus IF50.
(§8) The range of herbicide application rates tested sometimes includes application rates other than those shown above, and the rates can vary depending on the herbicide under test.
(§9) Herbicidal activity (phytotoxicity) is evaluated visually, and an assessed percentage phytotoxicity score is given for each herbicidal application on each plant species (with 100%=total damage to plant; 0%=no damage to plant; the assessment is recorded in increments of 1%). Two replicates are made for each experiment, and the mean herbicidal activity (phytotoxicity) data is reported.
(§10) For compounds A34, A98, A99, A87, A100, A101, A89, A120, A120A, A120B, A23, A127, A128, A89, A112 and A113 the tested weeds were as follows: Avena fatua (AVEFA), Lolium multiflorum (LOLMU), Setaria viridis (SETVI), Poa annua (POAAN), Alopecurus myosuroides (ALOMY). All five of these are grassy monocotyledonous weeds. Except for SETVI, these are all “cool-season” grassy monocotyledonous weeds.

Avena fatua (AVEFA) = experiment: as above
Protocol: as §1, §2, §3, §4, §5, §6, §7, §8, §9, §10

[2] = test system: Lolium multiflorum (LOLMU); experiment: as above
Protocol: as §1, §2, §3, §4, §5, §6, §7, §8, §9, §10

Poa annua (POAAN) = experiment: as above
Protocol: as §1, §2, §3, §4, §5, §6, §7, §8, §9, §10

Setaria viridis (SETVI) = experiment: as above
Protocol: as §1, §2, §3, §4, §5, §6, §7, §8, §9, §10

[3] = test system: Spring Barley “Harrington”; experiment: Test 1B glasshouse assay, post-emergence herbicidal activity against cereal crops
Protocol: as §1, §2, §3, §4, §5, §6, §7, §8, §9

Spring Wheat “Teal” = experiment: as above
Protocol: as §1, §2, §3, §4, §5, §6, §7, §8, §9

Winter Barley “Suzuka” = experiment: as above
Protocol: as §1, §2, §3, §4, §5, §6, §7, §8, §9

Winter Wheat “Hereward” = experiment: as above
Protocol: as §1, §2, §3, §4, §5, §6, §7, §8, §9

[4] = 60 g/ha herbicide, 0 g/ha cloquintocet-mexyl, test result no. 1 (T1)
[5] = 60 g/ha herbicide, 50 g/ha cloquintocet-mexyl, test result no. 1 (T1)
[6] = 60 g/ha herbicide, 50 g/ha cloquintocet-mexyl, test result no. 2 (T2)
[7] = 90 g/ha herbicide, 50 g/ha cloquintocet-mexyl, test result no. 2 (T2)
[8] = 120 g/ha herbicide, 50 g/ha cloquintocet-mexyl, test result no. 2 (T2)
[9] = 30 g/ha herbicide, 50 g/ha cloquintocet-mexyl
[10] = 45 g/ha herbicide, 50 g/ha cloquintocet-mexyl
[11] = 60 g/ha herbicide, 0 g/ha cloquintocet-mexyl
[12] = 60 g/ha herbicide, 50 g/ha cloquintocet-mexyl

## Cc1cc(-n2cc(Cl)cn2)cc(C)c1C1C(=O)C[C@H](CCNC(=O)c2ccccn2)C1=O (stereo partly drawn) [Compound A99]
[1]; [4]
  Post-emergence herbicidal activity, percentage phytotoxicity, ALOMY: 50 (T1) %
[1]; [5]
  Post-emergence herbicidal activity, percentage phytotoxicity, ALOMY: 35 (T1); %
[1]; [6]
  Post-emergence herbicidal activity, percentage phytotoxicity, ALOMY: 38 (T2) %
[1]; [7]
  Post-emergence herbicidal activity, percentage phytotoxicity, ALOMY: 58 (T2) %
[1]; [8]
  Post-emergence herbicidal activity, percentage phytotoxicity, ALOMY: 73 (T2) %
Avena fatua (AVEFA); [4]
  Post-emergence herbicidal activity, percentage phytotoxicity, AVEFA: 50 (T1) %
Avena fatua (AVEFA); [5]
  Post-emergence herbicidal activity, percentage phytotoxicity, AVEFA: 40 (T1); %
Avena fatua (AVEFA); [6]
  Post-emergence herbicidal activity, percentage phytotoxicity, AVEFA: 48 (T2) %
Avena fatua (AVEFA); [7]
  Post-emergence herbicidal activity, percentage phytotoxicity, AVEFA: 60 (T2) %
Avena fatua (AVEFA); [8]
  Post-emergence herbicidal activity, percentage phytotoxicity, AVEFA: 78 (T2) %
[2]; [4]
  Post-emergence herbicidal activity, percentage phytotoxicity, LOLMU: 35 (T1) %
[2]; [5]
  Post-emergence herbicidal activity, percentage phytotoxicity, LOLMU: 35 (T1); %
[2]; [6]
  Post-emergence herbicidal activity, percentage phytotoxicity, LOLMU: 55 (T2) %
[2]; [7]
  Post-emergence herbicidal activity, percentage phytotoxicity, LOLMU: 65 (T2) %
[2]; [8]
  Post-emergence herbicidal activity, percentage phytotoxicity, LOLMU: 78 (T2) %
Poa annua (POAAN); [4]
  Post-emergence herbicidal activity, percentage phytotoxicity, POAAN: 70 (T1) %
Poa annua (POAAN); [5]
  Post-emergence herbicidal activity, percentage phytotoxicity, POAAN: 73 (T1); %
Poa annua (POAAN); [6]
  Post-emergence herbicidal activity, percentage phytotoxicity, POAAN: 70 (T2) %
Poa annua (POAAN); [7]
  Post-emergence herbicidal activity, percentage phytotoxicity, POAAN: 73 (T2) %
Poa annua (POAAN); [8]
  Post-emergence herbicidal activity, percentage phytotoxicity, POAAN: 75 (T2) %
Setaria viridis (SETVI); [4]
  Post-emergence herbicidal activity, percentage phytotoxicity, SETVI: 10 (T1) %
Setaria viridis (SETVI); [5]
  Post-emergence herbicidal activity, percentage phytotoxicity, SETVI: 8 (T1); %
Setaria viridis (SETVI); [6]
  Post-emergence herbicidal activity, percentage phytotoxicity, SETVI: 33 (T2) %
Setaria viridis (SETVI); [7]
  Post-emergence herbicidal activity, percentage phytotoxicity, SETVI: 68 (T2) %
Setaria viridis (SETVI); [8]
  Post-emergence herbicidal activity, percentage phytotoxicity, SETVI: 75 (T2) %
[3]; [4]
  Post-emergence herbicidal activity against cereal crops, percentage phytotoxicity, Spring Barley “Harrington”: 15 (T1) %
[3]; [5]
  Post-emergence herbicidal activity against cereal crops, percentage phytotoxicity, Spring Barley “Harrington”: 3 (T1); %
[3]; [6]
  Post-emergence herbicidal activity against cereal crops, percentage phytotoxicity, Spring Barley “Harrington”: 3 (T2) %
[3]; [7]
  Post-emergence herbicidal activity against cereal crops, percentage phytotoxicity, Spring Barley “Harrington”: 5 (T2) %
[3]; [8]
  Post-emergence herbicidal activity against cereal crops, percentage phytotoxicity, Spring Barley “Harrington”: 8 (T2) %
Spring Wheat “Teal”; [4]
  Post-emergence herbicidal activity against cereal crops, percentage phytotoxicity, Spring Wheat “Teal”: 2 (T1) %
Spring Wheat “Teal”; [5]
  Post-emergence herbicidal activity against cereal crops, percentage phytotoxicity, Spring Wheat “Teal”: 1 (T1); %
Spring Wheat “Teal”; [6]
  Post-emergence herbicidal activity against cereal crops, percentage phytotoxicity, Spring Wheat “Teal”: 5 (T2) %
Spring Wheat “Teal”; [7]
  Post-emergence herbicidal activity against cereal crops, percentage phytotoxicity, Spring Wheat “Teal”: 5 (T2) %
Spring Wheat “Teal”; [8]
  Post-emergence herbicidal activity against cereal crops, percentage phytotoxicity, Spring Wheat “Teal”: 8 (T2) %
Winter Barley “Suzuka”; [4]
  Post-emergence herbicidal activity against cereal crops, percentage phytotoxicity, Winter Barley “Suzuka”: 60 (T1) %
Winter Barley “Suzuka”; [5]
  Post-emergence herbicidal activity against cereal crops, percentage phytotoxicity, Winter Barley “Suzuka”: 15 (T1); %
Winter Barley “Suzuka”; [6]
  Post-emergence herbicidal activity against cereal crops, percentage phytotoxicity, Winter Barley “Suzuka”: 14 (T2) %
Winter Barley “Suzuka”; [7]
  Post-emergence herbicidal activity against cereal crops, percentage phytotoxicity, Winter Barley “Suzuka”: 35 (T2) %
Winter Barley “Suzuka”; [8]
  Post-emergence herbicidal activity against cereal crops, percentage phytotoxicity, Winter Barley “Suzuka”: 38 (T2) %
Winter Wheat “Hereward”; [4]
  Post-emergence herbicidal activity against cereal crops, percentage phytotoxicity, Winter Wheat “Hereward”: 0 (T1) %
Winter Wheat “Hereward”; [5]
  Post-emergence herbicidal activity against cereal crops, percentage phytotoxicity, Winter Wheat “Hereward”: 1 (T1); %
Winter Wheat “Hereward”; [6]
  Post-emergence herbicidal activity against cereal crops, percentage phytotoxicity, Winter Wheat “Hereward”: 0 (T2) %
Winter Wheat “Hereward”; [7]
  Post-emergence herbicidal activity against cereal crops, percentage phytotoxicity, Winter Wheat “Hereward”: 0 (T2) %
Winter Wheat “Hereward”; [8]
  Post-emergence herbicidal activity against cereal crops, percentage phytotoxicity, Winter Wheat “Hereward”: 8 (T2) %

## CCc1cc(-n2cc(Cl)cn2)cc(C)c1C1C(=O)C[C@H](CCNC(=O)c2ccccn2)C1=O (stereo partly drawn) [Compound A101]
[1]; [9]
  Post-emergence herbicidal activity, percentage phytotoxicity, ALOMY: 25%
[1]; [10]
  Post-emergence herbicidal activity, percentage phytotoxicity, ALOMY: 43%
[1]; [11]
  Post-emergence herbicidal activity, percentage phytotoxicity, ALOMY: 55%
[1]; [12]
  Post-emergence herbicidal activity, percentage phytotoxicity, ALOMY: 55%
Avena fatua (AVEFA); [9]
  Post-emergence herbicidal activity, percentage phytotoxicity, AVEFA: 73%
Avena fatua (AVEFA); [10]
  Post-emergence herbicidal activity, percentage phytotoxicity, AVEFA: 88%
Avena fatua (AVEFA); [11]
  Post-emergence herbicidal activity, percentage phytotoxicity, AVEFA: 90%
Avena fatua (AVEFA); [12]
  Post-emergence herbicidal activity, percentage phytotoxicity, AVEFA: 88%
[2]; [9]
  Post-emergence herbicidal activity, percentage phytotoxicity, LOLMU: 68%
[2]; [10]
  Post-emergence herbicidal activity, percentage phytotoxicity, LOLMU: 83%
[2]; [11]
  Post-emergence herbicidal activity, percentage phytotoxicity, LOLMU: 88%
[2]; [12]
  Post-emergence herbicidal activity, percentage phytotoxicity, LOLMU: 83%
Poa annua (POAAN); [9]
  Post-emergence herbicidal activity, percentage phytotoxicity, POAAN: 5%
Poa annua (POAAN); [10]
  Post-emergence herbicidal activity, percentage phytotoxicity, POAAN: 15%
Poa annua (POAAN); [11]
  Post-emergence herbicidal activity, percentage phytotoxicity, POAAN: 48%
Poa annua (POAAN); [12]
  Post-emergence herbicidal activity, percentage phytotoxicity, POAAN: 38%
Setaria viridis (SETVI); [9]
  Post-emergence herbicidal activity, percentage phytotoxicity, SETVI: 15%
Setaria viridis (SETVI); [10]
  Post-emergence herbicidal activity, percentage phytotoxicity, SETVI: 35%
Setaria viridis (SETVI); [11]
  Post-emergence herbicidal activity, percentage phytotoxicity, SETVI: 53%
Setaria viridis (SETVI); [12]
  Post-emergence herbicidal activity, percentage phytotoxicity, SETVI: 53%
[3]; [9]
  Post-emergence herbicidal activity against cereal crops, percentage phytotoxicity, Spring Barley “Harrington”: 18%
[3]; [10]
  Post-emergence herbicidal activity against cereal crops, percentage phytotoxicity, Spring Barley “Harrington”: 18%
[3]; [11]
  Post-emergence herbicidal activity against cereal crops, percentage phytotoxicity, Spring Barley “Harrington”: 48%
[3]; [12]
  Post-emergence herbicidal activity against cereal crops, percentage phytotoxicity, Spring Barley “Harrington”: 23%
Spring Wheat “Teal”; [9]
  Post-emergence herbicidal activity against cereal crops, percentage phytotoxicity, Spring Wheat “Teal”: 10%
Spring Wheat “Teal”; [10]
  Post-emergence herbicidal activity against cereal crops, percentage phytotoxicity, Spring Wheat “Teal”: 13%
Spring Wheat “Teal”; [11]
  Post-emergence herbicidal activity against cereal crops, percentage phytotoxicity, Spring Wheat “Teal”: 48%
Spring Wheat “Teal”; [12]
  Post-emergence herbicidal activity against cereal crops, percentage phytotoxicity, Spring Wheat “Teal”: 18%
Winter Barley “Suzuka”; [9]
  Post-emergence herbicidal activity against cereal crops, percentage phytotoxicity, Winter Barley “Suzuka”: 23%
Winter Barley “Suzuka”; [10]
  Post-emergence herbicidal activity against cereal crops, percentage phytotoxicity, Winter Barley “Suzuka”: 23%
Winter Barley “Suzuka”; [11]
  Post-emergence herbicidal activity against cereal crops, percentage phytotoxicity, Winter Barley “Suzuka”: 75%
Winter Barley “Suzuka”; [12]
  Post-emergence herbicidal activity against cereal crops, percentage phytotoxicity, Winter Barley “Suzuka”: 40%
Winter Wheat “Hereward”; [9]
  Post-emergence herbicidal activity against cereal crops, percentage phytotoxicity, Winter Wheat “Hereward”: 18%
Winter Wheat “Hereward”; [10]
  Post-emergence herbicidal activity against cereal crops, percentage phytotoxicity, Winter Wheat “Hereward”: 23%
Winter Wheat “Hereward”; [11]
  Post-emergence herbicidal activity against cereal crops, percentage phytotoxicity, Winter Wheat “Hereward”: 43%
Winter Wheat “Hereward”; [12]
  Post-emergence herbicidal activity against cereal crops, percentage phytotoxicity, Winter Wheat “Hereward”: 38%
